In US20260242365A1, “USES OF CERTAIN 1,4-OXAZEPANE-2-CARBOXAMIDES AS DPP1 INHIBITORS” (Insmed Incorporated, priority 2023, published 2026):

Key:
Type in all cases: cell-based
[1] = tested on: proteinase 3 (PR3); assay: PR3 activity in lysates of mouse bone marrow progenitor cells differentiated into neutrophils under DPP1 inhibitor
Protocol: (§1) Male or female C57BL/6 mice at the age of 8-14 weeks were used.
(§2) The two femurs and two tibias were removed out of a single mouse and gauze was used to remove the muscles and residue tissues. A sterile environment for surgical instruments and surgical sites is maintained. The bones were put into one 15-mL tube with cold sterile RPMI medium and placed on ice until further processing is performed.
(§3) A fresh 50-mL tube is placed on ice and a fresh 40/70 μm cell strainer (CLS431750, Sigma) is inserted into the top of the Falcon tube. Both ends of two femurs and two tibias are cut with bone cutters and flush bone marrow of all bones from one single mouse are placed into the cell strainer. 5-mL of ice-cold RPMI (RPMI medium containing 10 mM HEPES, pH 7.4) was used for each femur or tibia using a blunt needle (25 G needle), totaling about 20 mL per tube.
(§4) The cell suspension is centrifuged at 600×g for 5 min at 4° C. and the supernatant is carefully discarded.
(§5) The cell pellet is resuspended in 400 μL of ice-cold MACS buffer (PH7.2 PBS plus 0.5% BSA and 2 mM EDTA) for one adult mouse (optimized for 4 bones/mouse).
(§6) 100 μL Direct Lineage Cell Depletion Cocktail (which is enough for 100 million cells depletion) is added. The components are mixed well and incubated for 10 min. at 2° C.-8° C.
(§7) Magnetic separation LS Column (MACS, Miltenyi, 130 042 401) is prepared by placing it in the magnetic field of MACS Separator and rinsing with 3 mL of ice-cold MACS buffer.
(§8) Cell suspension is applied onto the column. Flow-through containing unlabeled cells, representing the enriched lineage negative cells, is collected.
(§9) Column is washed with 3×3 mL of ice-cold MACS buffer. Unlabeled cells that pass through are collected, representing the enriched lineage negative cells, and combined with the flow-through from prior step.
(§10) The cell suspension is centrifuged at 600×g for 5 min at 4° C., and the supernatant is carefully discarded. The pellet is washed once with 10 mL ice cold IMDM medium (IMDM GlutaMax (Gibco, 31980030) plus 10% FCS and 1% PS).
(§11) The cell pellet is resuspended with 2 mL ice-cold complete IMDM medium and the cells are counted. The cells are then ready for neutrophil differentiation.
(§12) The resulting undifferentiated bone marrow cells are in complete IMDM medium (IMDM with 10% FBS and 1% antibiotics); and the concentration of cells is adjusted to 1×10^5 cells/mL, supplemented with 50 ng/ml of SCF (BioLegend, 579704) and 50 ng/ml of IL 3 (BioLegend, 575504). The cells are subgrouped and the respective DPP1 inhibitors are added accordingly. Cells are then cultivated in a flask at 37° C. for 3 days.
(§13) Cells are checked each day for expansion and maintaining a final concentration between 2-10×10^5 cells/ml. On day 3, cells are counted. 3-4 million cells for each group are harvested and lystates prepared for NSPs activity detection. The left cells are resuspended at 2× 10^5 cells/mL in fresh medium supplemented with 50 ng/ml of SCF, 50 ng/ml of IL 3 and 50 ng/ml of G-CSF (BioLegend, 574604). The DPP1 inhibitors are refreshed in the medium. Cells are then cultivated in a flask at 37° C. for another 2 days.
(§14) On day 5, cells are counted. 3-4 million cells/condition are harvested and the cells are lysed to prepare samples for NSPs activity detection. The remaining cells are collected by centrifugation at 600×g for 5 min. The left cells are washed once in 1×PBS. After the wash, the pelleted cells are resuspended in complete IMDM medium at 4-6×10^5 cells/mL supplemented with 50 ng/ml of G-CSF only. The DPP1 inhibitors in the medium are refreshed. Cells incubate for additional 2 days, for a total of 7 days from day of harvest. On day 7, cells are counted. 3-4 million cells/condition are harvested and the cell lysed to prepare samples for NSPs activity detection.
(§15) 3-4 million cells are collected into Eppendorf tubes. Samples are spun down at 600×g, 4° C. for 5 min. The supernatant is removed and resuspended in 1 mL PBS. […]

[2] = tested on: cathepsin G (CatG); assay: CatG activity in lysates of mouse bone marrow progenitor cells differentiated into neutrophils under DPP1 inhibitor; conditions: for max inhibition of CatG activity observed: regardless of day
Protocol: as §1, §2, §3, §4, §5, §6, §7, §8, §9, §10, §11, §12, §13, §14, §15

[3] = tested on: Neutrophil elastase (NE); assay: Neutrophil elastase activity in lysates of mouse bone marrow progenitor cells differentiated into neutrophils under DPP1 inhibitor
Protocol: as §1, §2, §3, §4, §5, §6, §7, §8, §9, §10, §11, §12, §13, §14, §15

[4] = target: T1, DPP1 in HL-60 cells (Homo sapiens, UniProt P53634); assay: DPP1 Cell IC50 Assay; conditions: H-Gly-Phe-AFC substrate
T1 construct: HL-60 cells (ATCC; host or cells: HL-60
T1 sequence (P53634 25-463): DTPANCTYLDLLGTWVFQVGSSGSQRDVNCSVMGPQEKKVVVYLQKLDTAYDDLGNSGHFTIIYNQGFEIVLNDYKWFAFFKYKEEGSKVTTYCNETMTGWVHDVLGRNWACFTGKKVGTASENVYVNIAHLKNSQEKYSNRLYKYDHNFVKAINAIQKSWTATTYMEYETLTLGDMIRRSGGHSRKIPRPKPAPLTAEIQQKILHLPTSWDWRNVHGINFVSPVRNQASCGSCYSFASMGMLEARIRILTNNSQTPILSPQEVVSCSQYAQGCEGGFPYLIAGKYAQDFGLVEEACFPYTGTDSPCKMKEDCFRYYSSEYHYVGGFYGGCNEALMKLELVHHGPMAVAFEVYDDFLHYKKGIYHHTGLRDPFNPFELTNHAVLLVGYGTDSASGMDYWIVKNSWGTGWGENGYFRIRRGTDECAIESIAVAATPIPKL
Protocol: HL-60 cells (ATCC; Manassas, VA) were maintained in RPMI-1640 supplemented with 20% heat-inactivated FBS and 1X Antibiotic Antimycotic (Cytiva; Marlborough, MA). Media was changed every three to four days and cells were not allowed to exceed 1×10^6 cells per mL. Prior to assay, cells were collected by centrifugation at 500 rcf for 3 minutes, resuspended in RPMI and counted. Cells were diluted in RPMI to a concentration of 5×10^5 live cells per mL and transferred to black 96-well plates for assay, 60 μL per well. Test articles were diluted in RPMI plus 0.5% DMSO, and 20 μL was added to each assay well. Compound was allowed to pre-incubate with cells with gentle shaking at 100 rpm for 60 minutes at 37° C. in a cell culture incubator maintained at 5% CO2, after which 20 μL of 500 μM H-Gly-Phe-AFC substrate (MP Biomedicals; Solon, OH) in RPMI was added to each well. Plates were returned to the incubator with shaking at 100 rpm for 30 minutes, after which fluorescence was measured at Excitation/Emission 400/505 nm. Percent (%) Inhibition was calculated from RFU values compared to control cell wells that received only RPMI plus 0.5% DMSO. IC50 values for each compound were calculated via the XLFit (IDBS Version 5.3.1.3) Add-On to Microsoft Excel using the four parameter fit equation y=(A+ ((B−A)/(1+ ((C/x)^D)))), which appears as equation number 205 (4 Parameter Logistic Model or Sigmoidal Dose-Response Model) in XLFit.

IC50 [4]	Structure (SMILES)	PR3 Activity (% reduction from control) ([1]; 0.02 μM, Day 3)	PR3 Activity (% reduction from control) ([1]; 0.02 μM, Day 5)	PR3 Activity (% reduction from control) ([1]; 0.02 μM, Day 7)	PR3 Activity (% reduction from control) ([1]; 0.1 μM, Day 3)	PR3 Activity (% reduction from control) ([1]; 0.1 μM, Day 5)	PR3 Activity (% reduction from control) ([1]; 0.1 μM, Day 7)	max inhibition of PR3 activity observed ([1]; regardless of day)	CatG Activity (% reduction from control) ([2]; 0.02 μM, Day 3)	CatG Activity (% reduction from control) ([2]; 0.02 μM, Day 5)	CatG Activity (% reduction from control) ([2]; 0.02 μM, Day 7)	CatG Activity (% reduction from control) ([2]; 0.1 μM, Day 3)	CatG Activity (% reduction from control) ([2]; 0.1 μM, Day 5)	CatG Activity (% reduction from control) ([2]; 0.1 μM, Day 7)	Neutrophil Elastase Activity (% reduction from control) ([3]; 0.02 μM, Day 3)	Neutrophil Elastase Activity (% reduction from control) ([3]; 0.02 μM, Day 5)	Neutrophil Elastase Activity (% reduction from control) ([3]; 0.02 μM, Day 7)	Neutrophil Elastase Activity (% reduction from control) ([3]; 0.1 μM, Day 3)	Neutrophil Elastase Activity (% reduction from control) ([3]; 0.1 μM, Day 5)	Neutrophil Elastase Activity (% reduction from control) ([3]; 0.1 μM, Day 7)	other results
1.1 ± 0.2 nM	COC1CNC[C@@H](C(=O)N[C@H](C#N)Cc2ccc(-c3ccc4oc(=O)n(C)c4c3)cc2)OC1 (mixture of isomers) [INSM-202, (6-rac)-(2S)—N-[(1S)-1-cyano-2-[4-(3-methyl-2-oxo-2,3-dihydro-1,3-benzoxazol-5-yl)phenyl]ethyl]-6-methoxy-1,4-oxazepane-2-carboxamide]	94%	95%	93%	94%	96%	98%	~ 95%	93%	94%	99%	100%	100%	100%	86%	80%	89%	78%	90%	88%	max inhibition of CatG activity observed [2]: ~ 95%; maximum inhibition of NE activity observed ([3]; regardless of day): ~ 85%
13.4 ± 4.1 nM	Cn1c(=O)oc2ccc(-c3ccc(C[C@@H](C#N)NC(=O)[C@@H]4CNC[C@H](O)CO4)cc3)cc21 (single isomer, unassigned) [INSM-201, (2S,6S*)—N-[(1S)-1-cyano-2-[4-(3-methyl-2-oxo-2,3-dihydro-1,3-benzoxazol-5-yl)phenyl]ethyl]-6-hydroxy-1,4-oxazepane-2-carboxamide]	45%	36%	72%	79%	96%	96%	–	46%	27%	78%	90%	94%	98%	67%	42%	78%	83%	83%	84%	reduction in PR3 activity [1]: concentration-dependent reduction in PR3 activity; max inhibition of PR3 activity observed ([1]; at 1 μM on D5 and D7): ~ 95%; PR3 inhibition at low dose, fluctuations depending on the day (range) ([1]; low dose, range over days): 36%-72%; reduction in CatG activity [2]: concentration-dependent reduction in CatG activity; max inhibition of CatG activity observed ([2]; at 1 μM): ~ 95%; CatG inhibition at low dose, fluctuations depending on the day (range) ([2]; low dose, range over days): 27-78%; reduction in NE activity [3]: concentration-dependent reduction in NE activity; maximum inhibition of NE activity observed ([3]; at 0.1 μM regardless of day): ~ 85%; NE inhibition at low dose, fluctuations depending on the day (range) ([3]; low dose, range over days): 42-78%
0.6 ± 0.01 nM	COC1CNC[C@@H](C(=O)N[C@H](C#N)Cc2ccc(-c3ccc4oc(=O)n(C)c4c3)cc2)OC1 (single isomer, unassigned) [INSM-203, (2S,6R*)—N-[(1S)-1-cyano-2-[4-(3-methyl-2-oxo-2,3-dihydro-1,3-benzoxazol-5-yl)phenyl]ethyl]-6-methoxy-1,4-oxazepane-2-carboxamide]	93%	93%	85%	94%	94%	84%	~ 90%	93%	97%	94%	99%	100%	96%	89%	82%	84%	91%	84%	86%	concentration by which PR3 inhibition plateau is reached [1]: ≤ 0.02 µM; max inhibition of CatG activity observed [2]: ~ 95%; maximum inhibition of NE activity observed ([3]; regardless of day): ~ 85%
